Tests used:
[1] = molecular target: Calcium/calmodulin-dependent protein kinase type 1D (Homo sapiens) (UniProt Q8IU85); experiment: Selectivity interaction (Kinase panel (DSF assay)) EUB0001559a CAMK1D
[2] = molecular target: T1, Dual serine/threonine and tyrosine protein kinase (Homo sapiens) (UniProt Q6XUX3); experiment: Selectivity interaction (KinomeScan (DiscoverX)) EUB0000695a DSTYK; settings: at 100 nM
T1 sequence (whole entry): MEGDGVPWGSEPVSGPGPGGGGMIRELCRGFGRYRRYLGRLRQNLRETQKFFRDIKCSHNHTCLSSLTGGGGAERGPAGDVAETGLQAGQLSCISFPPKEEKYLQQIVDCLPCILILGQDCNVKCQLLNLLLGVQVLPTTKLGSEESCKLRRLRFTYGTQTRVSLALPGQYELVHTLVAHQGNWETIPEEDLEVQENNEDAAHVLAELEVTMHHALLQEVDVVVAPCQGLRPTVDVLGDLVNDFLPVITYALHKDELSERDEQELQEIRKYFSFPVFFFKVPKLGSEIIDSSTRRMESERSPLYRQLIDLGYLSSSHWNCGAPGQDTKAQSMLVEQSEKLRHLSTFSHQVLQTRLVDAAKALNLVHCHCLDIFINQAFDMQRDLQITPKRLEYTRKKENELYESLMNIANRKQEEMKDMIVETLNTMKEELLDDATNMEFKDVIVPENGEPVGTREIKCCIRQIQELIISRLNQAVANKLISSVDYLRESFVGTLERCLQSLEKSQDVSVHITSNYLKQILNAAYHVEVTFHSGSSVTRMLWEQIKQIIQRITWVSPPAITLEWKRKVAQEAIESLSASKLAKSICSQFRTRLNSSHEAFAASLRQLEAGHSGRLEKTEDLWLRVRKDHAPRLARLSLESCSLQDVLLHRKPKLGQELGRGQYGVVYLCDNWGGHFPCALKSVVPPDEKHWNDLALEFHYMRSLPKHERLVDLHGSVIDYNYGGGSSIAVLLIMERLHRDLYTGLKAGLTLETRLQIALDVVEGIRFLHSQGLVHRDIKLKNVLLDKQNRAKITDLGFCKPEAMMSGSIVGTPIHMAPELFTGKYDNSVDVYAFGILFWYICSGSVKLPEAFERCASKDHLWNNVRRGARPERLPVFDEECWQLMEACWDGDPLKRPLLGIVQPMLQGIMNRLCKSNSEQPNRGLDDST

[3] = molecular target: 5-hydroxytryptamine receptor 1E (Homo sapiens) (UniProt P28566); experiment: Selectivity interaction (GPCR panel (PDSP screen)) EUB0001079a HTR1E; settings: at 10 µM
[4] = molecular target: Bromodomain testis-specific protein (Homo sapiens) (UniProt Q58F21); experiment: Selectivity interaction (Bromodomain panel (DSF asssay)) EUB0000270b BRDT
[5] = molecular target: T2, Serine/threonine-protein kinase Sgk1 (Homo sapiens) (UniProt O00141); experiment: Selectivity interaction (Millipore kinase profiler) EUB0000124b SGK1; settings: at 10 µM
T2 sequence (whole entry): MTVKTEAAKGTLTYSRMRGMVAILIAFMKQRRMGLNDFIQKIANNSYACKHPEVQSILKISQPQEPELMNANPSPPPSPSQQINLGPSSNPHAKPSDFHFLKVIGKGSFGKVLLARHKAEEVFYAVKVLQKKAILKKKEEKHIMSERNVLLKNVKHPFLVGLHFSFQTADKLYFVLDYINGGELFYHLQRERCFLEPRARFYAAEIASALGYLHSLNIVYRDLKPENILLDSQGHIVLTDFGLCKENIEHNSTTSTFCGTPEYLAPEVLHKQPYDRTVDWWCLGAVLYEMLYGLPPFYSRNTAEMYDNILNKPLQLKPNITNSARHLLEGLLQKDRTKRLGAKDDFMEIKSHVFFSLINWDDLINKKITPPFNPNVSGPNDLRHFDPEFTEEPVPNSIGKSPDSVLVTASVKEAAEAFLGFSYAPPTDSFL

[6] = molecular target: CDK4/Cyclin D3 (Homo sapiens) (UniProt P11802+P30281); experiment: (§1) Selectivity interaction (ProQinase) EUB0000171b CDK4; type: protein-complex assay
[7] = molecular target: Cyclin-dependent kinase 4/cyclin D1 (Homo sapiens) (UniProt P11802+P24385); experiment: as §1; type: protein-complex assay
[8] = molecular target: MAP kinase-interacting serine/threonine-protein kinase 1 (Homo sapiens) (UniProt Q9BUB5); experiment: Selectivity interaction (KinomeScan (DiscoverX)) EUB0001619a MKNK1; settings: at 1 µM
[9] = test system: eIF-2-alpha kinase GCN2 (Homo sapiens), Q9P2K8 [S808G]; experiment: Selectivity interaction (KinomeScan (DiscoverX)) EUB0001619a EIF2AK4; settings: at 1 µM
[10] = molecular target: T3, Serine/threonine-protein kinase 3 (Homo sapiens) (UniProt Q13188); experiment: Selectivity interaction (KinomeScan (DiscoverX)) EUB0000607a STK3; settings: at 10 µM
T3 sequence (whole entry): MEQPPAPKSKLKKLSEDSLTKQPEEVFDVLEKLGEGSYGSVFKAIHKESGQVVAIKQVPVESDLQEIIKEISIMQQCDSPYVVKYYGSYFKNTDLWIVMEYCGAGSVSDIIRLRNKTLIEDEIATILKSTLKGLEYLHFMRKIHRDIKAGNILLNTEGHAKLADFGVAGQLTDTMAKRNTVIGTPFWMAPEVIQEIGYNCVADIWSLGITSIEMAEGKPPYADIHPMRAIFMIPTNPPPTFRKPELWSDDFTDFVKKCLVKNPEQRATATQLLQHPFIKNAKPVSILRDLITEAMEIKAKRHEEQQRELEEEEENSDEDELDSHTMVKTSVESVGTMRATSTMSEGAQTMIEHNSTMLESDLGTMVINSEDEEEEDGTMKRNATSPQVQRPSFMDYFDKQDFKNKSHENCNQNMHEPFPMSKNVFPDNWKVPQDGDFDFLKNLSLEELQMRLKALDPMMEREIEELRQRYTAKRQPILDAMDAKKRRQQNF

[11] = molecular target: Cyclin-dependent kinase 5 (Homo sapiens, UniProt Q00535); experiment: Selectivity interaction (ActivX KiNativ screen (kinase selectivity in THP-1 cell lysates)) EUB0000639a CDK5; type: subcellular; settings: lysate, at 0.2 µM
[12] = molecular target: Cyclin-dependent kinase 7 (Homo sapiens, UniProt P50613); experiment: Selectivity interaction (ActivX KiNativ screen (kinase selectivity in THP-1 cell lysates)) EUB0000639a CDK7; type: subcellular; settings: lysate, at 0.2 µM
[13] = molecular target: Mitogen-activated protein kinase 4 (Homo sapiens) (UniProt P31152); experiment: Selectivity interaction (KinomeScan (DiscoverX)) EUB0000092b MAPK4; settings: at 10 µM
Sequence of Mitogen-activated protein kinase 4 (Homo sapiens) (P31152 whole entry): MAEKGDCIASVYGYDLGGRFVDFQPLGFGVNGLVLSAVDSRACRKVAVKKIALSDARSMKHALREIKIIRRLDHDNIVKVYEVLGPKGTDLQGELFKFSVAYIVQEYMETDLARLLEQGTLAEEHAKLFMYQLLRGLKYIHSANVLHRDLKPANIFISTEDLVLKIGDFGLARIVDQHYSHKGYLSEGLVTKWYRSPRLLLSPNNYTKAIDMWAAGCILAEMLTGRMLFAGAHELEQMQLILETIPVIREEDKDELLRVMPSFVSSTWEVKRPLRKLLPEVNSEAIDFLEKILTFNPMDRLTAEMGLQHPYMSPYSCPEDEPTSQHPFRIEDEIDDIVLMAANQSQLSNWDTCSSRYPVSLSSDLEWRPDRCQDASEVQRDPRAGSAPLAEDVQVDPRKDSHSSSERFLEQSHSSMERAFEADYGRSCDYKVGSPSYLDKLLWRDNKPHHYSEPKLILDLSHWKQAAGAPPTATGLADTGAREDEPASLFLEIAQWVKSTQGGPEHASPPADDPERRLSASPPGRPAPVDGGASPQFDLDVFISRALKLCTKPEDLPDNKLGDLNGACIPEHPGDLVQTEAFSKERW

Sequence of MAP kinase-interacting serine/threonine-protein kinase 1 (Homo sapiens) (Q9BUB5 whole entry, looked up): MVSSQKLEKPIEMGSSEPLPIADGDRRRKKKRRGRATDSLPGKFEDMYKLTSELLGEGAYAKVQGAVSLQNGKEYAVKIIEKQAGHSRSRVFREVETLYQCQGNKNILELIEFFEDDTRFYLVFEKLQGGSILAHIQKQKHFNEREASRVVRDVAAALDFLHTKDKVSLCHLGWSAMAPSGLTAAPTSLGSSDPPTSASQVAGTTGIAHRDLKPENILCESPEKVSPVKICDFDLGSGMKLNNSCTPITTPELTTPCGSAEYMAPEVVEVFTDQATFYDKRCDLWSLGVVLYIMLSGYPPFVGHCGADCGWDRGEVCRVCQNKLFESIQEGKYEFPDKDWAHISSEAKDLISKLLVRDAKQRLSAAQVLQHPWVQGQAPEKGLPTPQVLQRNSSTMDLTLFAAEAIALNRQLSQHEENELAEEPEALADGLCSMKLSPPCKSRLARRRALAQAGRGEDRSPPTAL
Sequence of Calcium/calmodulin-dependent protein kinase type 1D (Homo sapiens) (Q8IU85 whole entry, looked up): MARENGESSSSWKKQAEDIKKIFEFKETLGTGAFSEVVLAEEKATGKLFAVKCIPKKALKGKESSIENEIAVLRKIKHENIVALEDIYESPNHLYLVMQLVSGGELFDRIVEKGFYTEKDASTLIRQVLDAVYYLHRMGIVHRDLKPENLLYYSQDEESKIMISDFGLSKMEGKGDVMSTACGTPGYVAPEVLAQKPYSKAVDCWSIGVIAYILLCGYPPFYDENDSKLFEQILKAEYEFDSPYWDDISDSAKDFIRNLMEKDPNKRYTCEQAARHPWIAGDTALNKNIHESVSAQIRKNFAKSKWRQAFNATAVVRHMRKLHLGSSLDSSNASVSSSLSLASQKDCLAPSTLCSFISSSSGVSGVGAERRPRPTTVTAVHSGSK
Sequence of Cyclin-dependent kinase 5 (Q00535 whole entry, looked up): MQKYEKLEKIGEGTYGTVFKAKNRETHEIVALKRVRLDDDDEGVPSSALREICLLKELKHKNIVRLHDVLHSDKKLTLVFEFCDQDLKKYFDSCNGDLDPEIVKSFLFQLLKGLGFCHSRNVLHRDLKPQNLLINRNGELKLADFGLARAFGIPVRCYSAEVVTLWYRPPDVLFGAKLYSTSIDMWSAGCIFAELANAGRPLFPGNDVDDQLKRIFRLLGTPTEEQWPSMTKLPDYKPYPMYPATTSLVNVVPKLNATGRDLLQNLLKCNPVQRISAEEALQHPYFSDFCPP
Sequence of eIF-2-alpha kinase GCN2 (Homo sapiens), Q9P2K8 [S808G] (Q9P2K8 whole entry S808G): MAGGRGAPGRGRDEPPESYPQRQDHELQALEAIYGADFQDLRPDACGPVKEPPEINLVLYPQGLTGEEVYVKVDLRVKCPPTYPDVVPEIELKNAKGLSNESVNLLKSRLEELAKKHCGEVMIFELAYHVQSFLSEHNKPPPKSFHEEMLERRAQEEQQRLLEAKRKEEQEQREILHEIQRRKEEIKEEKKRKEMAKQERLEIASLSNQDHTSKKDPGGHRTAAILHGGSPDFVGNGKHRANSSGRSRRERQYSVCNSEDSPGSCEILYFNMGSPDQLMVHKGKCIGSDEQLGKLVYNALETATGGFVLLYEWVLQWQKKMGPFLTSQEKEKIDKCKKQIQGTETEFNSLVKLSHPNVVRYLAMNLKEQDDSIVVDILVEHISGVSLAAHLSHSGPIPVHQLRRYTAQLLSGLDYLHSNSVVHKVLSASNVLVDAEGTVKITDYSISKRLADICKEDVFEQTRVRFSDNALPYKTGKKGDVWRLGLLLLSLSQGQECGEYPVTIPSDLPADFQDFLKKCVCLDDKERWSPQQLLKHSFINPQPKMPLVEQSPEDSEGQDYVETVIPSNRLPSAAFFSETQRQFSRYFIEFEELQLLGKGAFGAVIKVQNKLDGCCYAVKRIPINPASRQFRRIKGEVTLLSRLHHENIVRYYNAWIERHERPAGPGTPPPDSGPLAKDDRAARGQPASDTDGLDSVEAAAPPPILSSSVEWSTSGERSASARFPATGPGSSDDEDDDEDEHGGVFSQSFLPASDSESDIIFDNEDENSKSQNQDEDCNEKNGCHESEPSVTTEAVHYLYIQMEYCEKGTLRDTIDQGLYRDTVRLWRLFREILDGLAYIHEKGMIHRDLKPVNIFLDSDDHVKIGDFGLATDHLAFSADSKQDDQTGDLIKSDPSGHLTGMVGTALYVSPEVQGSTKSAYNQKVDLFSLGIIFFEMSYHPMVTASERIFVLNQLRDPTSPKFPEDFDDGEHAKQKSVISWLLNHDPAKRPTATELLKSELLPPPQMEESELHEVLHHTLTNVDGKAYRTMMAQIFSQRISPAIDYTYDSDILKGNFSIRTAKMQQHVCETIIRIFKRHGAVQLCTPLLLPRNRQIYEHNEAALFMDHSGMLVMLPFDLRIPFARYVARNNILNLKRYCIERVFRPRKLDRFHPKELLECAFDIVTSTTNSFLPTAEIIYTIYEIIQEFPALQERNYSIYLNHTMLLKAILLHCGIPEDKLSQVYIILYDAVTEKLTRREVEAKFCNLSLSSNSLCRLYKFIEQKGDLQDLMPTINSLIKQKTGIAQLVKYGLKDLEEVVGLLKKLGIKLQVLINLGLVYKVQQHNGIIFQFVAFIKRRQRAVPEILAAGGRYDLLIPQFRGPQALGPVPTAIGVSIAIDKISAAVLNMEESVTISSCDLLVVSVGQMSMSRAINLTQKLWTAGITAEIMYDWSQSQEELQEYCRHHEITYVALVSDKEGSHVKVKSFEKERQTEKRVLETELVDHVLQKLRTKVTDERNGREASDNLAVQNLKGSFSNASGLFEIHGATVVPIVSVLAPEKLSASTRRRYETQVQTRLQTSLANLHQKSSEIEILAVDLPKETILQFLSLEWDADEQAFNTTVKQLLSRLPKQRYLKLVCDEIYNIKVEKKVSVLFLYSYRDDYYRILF
Sequence of Cyclin-dependent kinase 7 (P50613 whole entry): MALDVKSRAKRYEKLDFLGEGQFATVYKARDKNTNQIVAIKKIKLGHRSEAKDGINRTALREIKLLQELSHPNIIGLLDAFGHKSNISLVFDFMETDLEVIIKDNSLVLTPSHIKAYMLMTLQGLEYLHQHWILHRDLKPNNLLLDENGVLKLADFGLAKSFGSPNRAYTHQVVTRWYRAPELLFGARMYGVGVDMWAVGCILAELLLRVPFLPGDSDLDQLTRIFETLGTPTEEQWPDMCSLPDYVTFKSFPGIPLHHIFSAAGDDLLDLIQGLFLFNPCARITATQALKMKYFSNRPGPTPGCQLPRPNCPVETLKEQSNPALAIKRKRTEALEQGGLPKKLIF
Sequence of 5-hydroxytryptamine receptor 1E (Homo sapiens) (P28566 whole entry): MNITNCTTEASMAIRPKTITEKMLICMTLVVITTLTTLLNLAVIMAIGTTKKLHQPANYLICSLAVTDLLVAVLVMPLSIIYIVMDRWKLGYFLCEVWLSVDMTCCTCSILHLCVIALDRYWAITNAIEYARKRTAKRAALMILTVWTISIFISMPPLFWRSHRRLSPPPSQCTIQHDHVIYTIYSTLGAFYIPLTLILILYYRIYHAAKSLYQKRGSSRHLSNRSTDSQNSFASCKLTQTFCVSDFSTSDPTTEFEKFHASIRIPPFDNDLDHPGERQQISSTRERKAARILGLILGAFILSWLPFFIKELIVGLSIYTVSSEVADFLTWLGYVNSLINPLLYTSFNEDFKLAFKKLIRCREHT

Compound `CN(C(=O)c1cnn2cccnc12)c1cc2c(cc1N1CCOCC1)C(=O)N(C[C@@H](F)C(C)(C)O)C2` has a dTM [1] of -0.7 K.

`Cc1cc(F)c(C(=O)Nc2cccc(-c3nncn3C(C)C)n2)cc1-n1cnc(C2CC2)c1` was tested, and the % of control [2] was 79%.

`Nc1cnc(N2CCc3cc(S(=O)(=O)Nc4c(F)cc(Cl)cc4F)cc(N4CCCC4=O)c32)nc1` [TP-020n] gave a % of inhibition [3] of -4.55%.

For `Cc1cc(CN)cc(C)c1-c1ncn(C)c1-c1cncn1C`, the dTM [4] was -1.8 K.

With `CC(=O)Nc1cccc(-n2c(=O)n(C3CC3)c(=O)c3c(Nc4ccc(I)cc4F)n(C)c(=O)c(C)c32)c1` the % of control [5] was 114%.

`C=CC(=O)Nc1cccc(C(=O)Nc2ccc(Nc3cc(-c4[nH]c(SC)nc4C)ccn3)cc2)c1` gave a % of control ([6]; at 1 µM) of 92%, a % of control ([6]; at 5 µM) of 83% and a % of control ([7]; at 1 µM) of 94%. For the same compound, the % of control ([7]; at 5 µM) was 76%.

For `N#Cc1cccc(-c2c[nH]c3ncnc(N4CCOCC4)c23)c1`, the % of control [8] was 100% and the % of control [9] was 100%.

Work on `CNC(=O)Nc1ccc(-c2nc(N3CC4CCC(C3)O4)c3cnn(C4CCC5(CC4)OCCO5)c3n2)cc1` yielded a % of control [10] of 97%.

Work on `CC[C@@H]1[C@H](F)C(=O)N[C@@H]1COc1nccc2cc(C(N)=O)c(OC)cc12` [ZIMLOVISERTIB] yielded a % of inhibition [11] of -6.8% and a % of inhibition [12] of -4.5%.

With `CCC(=O)N1CCN(c2ccc(-n3c(=O)ccc4cnc5ccc(-c6cnc7ccccc7c6)cc5c43)cc2C(F)(F)F)CC1` the % of control [13] was 80%.

From ChEMBL document CHEMBL5465560, “Selectivity Literature for EUbOPEN Chemogenomic Library” (2024)
